Measurements as given in ChEMBL document CHEMBL1201862, “PubChem BioAssay data set” (2004).
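Tested at 5 concentrations; 48 h exposure; 96-well plates; endpoints linearly interpolated, else capped at highest concentration. The concentration for 50% growth inhibition is given as GI50.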 The source made the active and inactive calls. No stated cut-off is given here; in the data, active = GI50 up to about 1.1 µM and inactive = higher.

What was measured:
Assay in all cases: NCI tumour cell line growth inhibition, 48 h
[1] = system: 786-0
[2] = system: A498
[3] = system: A549
[4] = system: ACHN
[5] = system: BT-549
[6] = system: CAKI-1
[7] = system: CCRF-CEM
[8] = system: COLO 205
[9] = system: DU-145
[10] = system: EKVX
[11] = system: HCC 2998
[12] = system: HCT-116
[13] = system: HCT-15
[14] = system: HL-60
[15] = system: HOP-62
[16] = system: HOP-92
[17] = system: HT-29
[18] = system: Hs-578T
[19] = system: IGROV-1
[20] = system: K562
[21] = system: KM12
[22] = system: LOX IMVI
[23] = system: M14
[24] = system: MCF7
[25] = system: MDA-MB-231
[26] = system: MDA-MB-435
[27] = system: MDA-N
[28] = system: MOLT-4
[29] = system: Malme-3M
[30] = system: NCI-H226
[31] = system: NCI-H23
[32] = system: NCI-H460
[33] = system: NCI-H522
[34] = system: NCI/ADR-RES
[35] = system: OVCAR-3
[36] = system: OVCAR-4
[37] = system: OVCAR-5
[38] = system: OVCAR-8
[39] = system: PC-3
[40] = system: RPMI-8226
[41] = system: RXF 393
[42] = system: SF-268
[43] = system: SF-295
[44] = system: SF-539
[45] = system: SK-MEL-28
[46] = system: SK-MEL-2
[47] = system: SK-MEL-5
[48] = system: SK-OV-3
[49] = system: SN12C
[50] = system: SNB-19
[51] = system: SNB-75
[52] = system: SR
[53] = system: SW-620
[54] = system: T47D
[55] = system: TK-10
[56] = system: U-251
[57] = system: UACC-257
[58] = system: UACC-62
[59] = system: UO-31
[60] = system: DLD-1
[61] = system: DMS-273
[62] = system: KM-20L2
[63] = system: LXFL 529
[64] = system: M19-MEL

## Cc1cc(=O)oc2cc(OC(=O)Nc3ccc(Cl)c(Cl)c3)ccc12
[1]
  GI50: 38.8 µM (inactive)
[2]
  GI50: 14.2 µM (inactive)
[3]
  GI50: 24.8 µM (inactive)
[4]
  GI50: 20.9 µM (inactive)
[5]
  GI50: 17.8 µM (inactive)
[6]
  GI50: 38.3 µM (inactive)
[7]
  GI50: 20.7 µM (inactive)
[8]
  GI50: 32.4 µM (inactive)
[9]
  GI50: 25.3 µM (inactive)
[10]
  GI50: 30.8 µM (inactive)
[11]
  GI50: 19.4 µM (inactive)
[12]
  GI50: 15.5 µM (inactive)
[13]
  GI50: 20.9 µM
[14]
  GI50: 18.5 µM (inactive)
[15]
  GI50: 24.7 µM (inactive)
[16]
  GI50: 13.6 µM (inactive)
[17]
  GI50: 25.2 µM (inactive)
[18]
  GI50: 20.7 µM (inactive)
[19]
  GI50: 20.2 µM (inactive)
[20]
  GI50: 10.9 µM (inactive)
[21]
  GI50: 27.1 µM (inactive)
[22]
  GI50: 18.9 µM (inactive)
[23]
  GI50: 22.6 µM (inactive)
[24]
  GI50: 25.6 µM (inactive)
[25]
  GI50: 26 µM (inactive)
[26]
  GI50: 20.9 µM (inactive)
[27]
  GI50: 21.3 µM (inactive)
[28]
  GI50: 17.1 µM (inactive)
[29]
  GI50: 23.1 µM (inactive)
[30]
  GI50: 20.3 µM (inactive)
[31]
  GI50: 20.7 µM (inactive)
[32]
  GI50: 18.5 µM (inactive)
[33]
  GI50: 17.3 µM (inactive)
[34]
  GI50: 30.5 µM (inactive)
[35]
  GI50: 13 µM (inactive)
[36]
  GI50: 41.3 µM (inactive)
[37]
  GI50: 20.4 µM (inactive)
[38]
  GI50: 20.2 µM (inactive)
[39]
  GI50: 22.5 µM (inactive)
[40]
  GI50: 9.29 µM (inactive)
[41]
  GI50: 14.3 µM (inactive)
[42]
  GI50: 38 µM (inactive)
[43]
  GI50: 20.9 µM (inactive)
[44]
  GI50: 18.8 µM (inactive)
[45]
  GI50: 25.4 µM (inactive)
[46]
  GI50: 21.6 µM (inactive)
[47]
  GI50: 16.1 µM (inactive)
[48]
  GI50: 36.4 µM (inactive)
[49]
  GI50: 25.3 µM (inactive)
[50]
  GI50: 25.9 µM (inactive)
[51]
  GI50: 25.2 µM (inactive)
[52]
  GI50: 19.7 µM (inactive)
[53]
  GI50: 21.4 µM (inactive)
[54]
  GI50: 12 µM (inactive)
[55]
  GI50: 34.9 µM (inactive)
[56]
  GI50: 20.4 µM (inactive)
[57]
  GI50: 30.8 µM (inactive)
[58]
  GI50: 16 µM (inactive)
[59]
  GI50: 27.4 µM (inactive)

## CCOC(=O)/C(C#N)=C1/C(O)=C(C(=O)OC)C(C(=O)OC)=C1C(=O)OC.c1ccncc1
[1]
  GI50: > 100 µM (inactive)
[3]
  GI50: > 100 µM (inactive)
[4]
  GI50: > 100 µM (inactive)
[6]
  GI50: > 100 µM (inactive)
[7]
  GI50: > 100 µM (inactive)
[8]
  GI50: > 100 µM (inactive)
[60]
  GI50: > 100 µM (inactive)
[61]
  GI50: > 100 µM (inactive)
[10]
  GI50: > 100 µM (inactive)
[11]
  GI50: > 100 µM (inactive)
[13]
  GI50: > 100 µM
[14]
  GI50: > 100 µM (inactive)
[16]
  GI50: > 100 µM (inactive)
[17]
  GI50: > 100 µM (inactive)
[19]
  GI50: > 100 µM (inactive)
[20]
  GI50: > 100 µM (inactive)
[62]
  GI50: > 100 µM (inactive)
[21]
  GI50: > 100 µM (inactive)
[22]
  GI50: > 100 µM (inactive)
[63]
  GI50: > 100 µM (inactive)
[23]
  GI50: > 100 µM (inactive)
[64]
  GI50: > 100 µM (inactive)
[28]
  GI50: > 100 µM (inactive)
[29]
  GI50: > 100 µM (inactive)
[31]
  GI50: > 100 µM (inactive)
[32]
  GI50: > 100 µM (inactive)
[33]
  GI50: > 100 µM (inactive)
[35]
  GI50: > 100 µM (inactive)
[36]
  GI50: > 100 µM (inactive)
[37]
  GI50: > 100 µM (inactive)
[38]
  GI50: > 100 µM (inactive)
[40]
  GI50: > 100 µM (inactive)
[41]
  GI50: > 100 µM (inactive)
[42]
  GI50: > 100 µM (inactive)
[43]
  GI50: > 100 µM (inactive)
[44]
  GI50: > 100 µM (inactive)
[45]
  GI50: > 100 µM (inactive)
[46]
  GI50: > 100 µM (inactive)
[47]
  GI50: > 100 µM (inactive)
[48]
  GI50: > 100 µM (inactive)
[49]
  GI50: > 100 µM (inactive)
[50]
  GI50: > 100 µM (inactive)
[51]
  GI50: > 100 µM (inactive)
[53]
  GI50: > 100 µM (inactive)
[55]
  GI50: > 100 µM (inactive)
[56]
  GI50: > 100 µM (inactive)
[57]
  GI50: > 100 µM (inactive)
[58]
  GI50: > 100 µM (inactive)
[59]
  GI50: > 100 µM (inactive)
